Measurements taken from patent publication US20240350643A1, “PROTEIN DEGRADATION AGENT” (SUZHOU KINTOR PHARMACEUTICALS, INC., priority 2021, published 2024).
Read-outs that look alike come from different tables or passages of the source.

What was measured:
HL60 cells = experiment: Anti-proliferation ability of compounds on HL60 cells (CTG); format: cell-based, human; conditions: 3 days, CellTiter-Glo, read-out: HL60 cells Proliferation inhibitory activity
How it was run: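 HL60 cells (20000/well) exposed to serially diluted compounds (0.1% DMSO vehicle control) for 3 days. Viability read by CellTiter-Glo luminescence; IC50 fitted from inhibition rates.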

c-Myc protein = biological target: T1, c-Myc protein (Homo sapiens, UniProt P01106); experiment: Ability of compounds to degrade c-Myc protein in HL60 cells (ELISA); format: cell-based; conditions: HL-60, 1 μM compound, 24 h, read-out: HL60 cells Protein degradation rate (1 μM)
T1 construct: endogenous in cells; host or cells: HL60 cells
T1 sequence (P01106 whole entry): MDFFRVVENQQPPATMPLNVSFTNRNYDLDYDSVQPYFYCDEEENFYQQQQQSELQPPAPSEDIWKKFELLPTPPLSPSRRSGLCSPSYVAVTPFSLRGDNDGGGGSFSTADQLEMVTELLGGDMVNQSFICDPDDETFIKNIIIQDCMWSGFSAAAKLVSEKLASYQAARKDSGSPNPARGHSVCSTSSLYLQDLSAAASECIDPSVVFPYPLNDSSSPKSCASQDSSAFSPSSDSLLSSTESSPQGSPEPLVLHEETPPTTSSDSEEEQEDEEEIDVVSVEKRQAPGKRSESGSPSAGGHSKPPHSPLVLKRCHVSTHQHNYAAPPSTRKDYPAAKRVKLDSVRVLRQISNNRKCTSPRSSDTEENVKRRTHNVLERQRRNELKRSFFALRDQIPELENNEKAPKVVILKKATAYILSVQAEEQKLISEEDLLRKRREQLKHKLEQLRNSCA

Structure (SMILES)	IC50 (HL60 cells; Homo sapiens, HL-60, 72 h) [nM]	inhibition at 1 µM (c-Myc protein) [%]	IC50 (HL60 cells) [nM]
CN(CCn1c2ccccc2c2cccnc21)Cc1ccc(C2(NC(=O)c3ccc4c(c3)C(=O)N(C3CCC(=O)NC3=O)C4=O)CC2)cc1 (stereo not shown) [A140]	11 ± 1.7	60 to 90	–
O=C1CCC(N2C(=O)c3ccc(C(=O)NCc4ccc(C5(NC(=O)Cc6cccc7ccccc67)CC5)cc4)cc3C2=O)C(=O)N1 (stereo not shown) [A141]	6.5 ± 0.3	60 to 90	–
CC(C)(NC(=O)Cn1c2ccccc2c2cccnc21)c1ccc(CNC(=O)c2ccc3c(c2)C(=O)N(C2CCC(=O)NC2=O)C3=O)cc1 (stereo not shown) [A150]	7.2 ± 1	60 to 90	–
CN(CCn1c2ccccc2c2cccnc21)C(C)(C)c1ccc(CNC(=O)c2ccc3c(c2)C(=O)N(C2CCC(=O)NC2=O)C3=O)cc1 (stereo not shown) [A151]	11.3 ± 4.7	60 to 90	–
O=C(Cc1cccc2ccc(F)cc12)NCc1ccc(CNC(=O)c2ccc3c(c2)CN(C2CCC(=O)NC2=O)C3=O)cc1 (stereo not shown) [A155]	3 ± 0.6	60 to 90	–
O=C(Cn1c2ccccc2c2cccnc21)NCc1ccc(CNC(=O)c2ccc3c(c2)CN(C2CCC(=O)NC2=O)C3=O)c(F)c1 (stereo not shown) [A157]	0.5 ± 0.1	60 to 90	–
O=C(Cc1nccc2ccccc12)NCc1ccc(CNC(=O)c2ccc3c(c2)CN(C2CCC(=O)NC2=O)C3=O)c(F)c1 (stereo not shown) [A158]	3.3 ± 0.3	30 to 60	–
O=C(Cc1cccc2ccccc12)NCc1ccc(CNC(=O)c2ccc3c(c2)CN(C2CCC(=O)NC2=O)C3=O)c(C(F)(F)F)c1 (stereo not shown) [A159]	2.2 ± 0.8	60 to 90	–
O=C(Cn1c2ccccc2c2cccnc21)NCc1ccc(CNC(=O)c2ccc3c(c2)CN(C2CCC(=O)NC2=O)C3=O)c(C(F)(F)F)c1 (stereo not shown) [A160]	–	60 to 90	0.4 ± 0.3
O=C(Cc1c(F)ccc2ccccc12)NCc1ccc(CNC(=O)c2ccc3c(c2)CN(C2CCC(=O)NC2=O)C3=O)c(C(F)(F)F)c1 (stereo not shown) [A161]	0.9 ± 0.1	60 to 90	–
O=C1CCC(N2Cc3cc(C(=O)NCc4ccc(C5(NC(=O)Cc6cccc7ccccc67)CC5)cc4F)ccc3C2=O)C(=O)N1 (stereo not shown) [A163]	1.3 ± 0.3	60 to 90	–
O=C1CCC(N2Cc3cc(C(=O)NCc4ccc(C5(NC(=O)Cn6c7ccccc7c7cccnc76)CC5)cc4F)ccc3C2=O)C(=O)N1 (stereo not shown) [A164]	2.4 ± 0.3	60 to 90	–
O=C(Cc1cccc2ccccc12)NCc1ccc(CC(=O)Nc2ccc3c(c2)C(=O)N(C2CCC(=O)NC2=O)C3=O)cc1 (stereo not shown) [A165]	27.9 ± 19.5	60 to 90	–
CN(CCc1ccc(Cl)cc1Cl)Cc1ccc(CC(=O)Nc2ccc3c(c2)C(=O)N(C2CCC(=O)NC2=O)C3=O)cc1 (stereo not shown) [A169]	1.9 ± 0.6	60 to 90	–
O=C(Cc1nccc2ccccc12)NCc1ccc(CC(=O)Nc2ccc3c(c2)CN(C2CCC(=O)NC2=O)C3=O)cc1 (stereo not shown) [A172]	< 3	60 to 90	–
O=C(Cc1cccc2ccccc12)NCc1ccc(CNCc2ccc3c(c2)C(=O)N(C2CCC(=O)NC2=O)C3=O)cc1 (stereo not shown) [A175]	14.4 ± 6.4	60 to 90	–
O=C(Cn1c2ccccc2c2cccnc21)NCc1ccc(CNCc2ccc3c(c2)C(=O)N(C2CCC(=O)NC2=O)C3=O)cc1 (stereo not shown) [A176]	2.1 ± 0.6	60 to 90	–
O=C1CCC(N2C(=O)c3ccc(CNCc4ccc(C(=O)NCCn5c6ccccc6c6cccnc65)cc4)cc3C2=O)C(=O)N1 (stereo not shown) [A180]	133 ± 48.4	60 to 90	–
CN(CCc1cccc2cccnc12)Cc1ccc(CNCc2ccc3c(c2)C(=O)N(C2CCC(=O)NC2=O)C3=O)cc1 (stereo not shown) [A183]	16.7 ± 2.5	60 to 90	–
CN(CCc1ccc(Cl)c(Cl)c1)Cc1ccc(CNCc2ccc3c(c2)C(=O)N(C2CCC(=O)NC2=O)C3=O)cc1 (stereo not shown) [A184]	11.9 ± 5.5	60 to 90	–
CN(CCc1ccc(Cl)cc1Cl)Cc1ccc(CNCc2ccc3c(c2)C(=O)N(C2CCC(=O)NC2=O)C3=O)cc1 (stereo not shown) [A185]	7.5 ± 1.1	60 to 90	–

Now from value to compound:

IC50 (HL60 cells; Homo sapiens, HL-60, 72 h) [nM]	inhibition at 1 µM (c-Myc protein) [%]	IC50 (HL60 cells) [nM]	Structure (SMILES)
22.5 ± 14.3	60 to 90	–	CN(CCc1cccc2ccccc12)Cc1ccc(C2(NC(=O)c3ccc4c(c3)C(=O)N(C3CCC(=O)NC3=O)C4=O)CC2)cc1 (stereo not shown) [A139]
6.1 ± 0.9	60 to 90	–	O=C1CCC(N2C(=O)c3ccc(C(=O)NCc4ccc(C5(NC(=O)Cn6c7ccccc7c7cccnc76)CC5)cc4)cc3C2=O)C(=O)N1 (stereo not shown) [A142]
22.9 ± 3	60 to 90	–	CN(CCc1cccc2ccccc12)C1(c2ccc(CNC(=O)c3ccc4c(c3)C(=O)N(C3CCC(=O)NC3=O)C4=O)cc2)CC1 (stereo not shown) [A143]
18.4 ± 7.4	60 to 90	–	CN(CCn1c2ccccc2c2cccnc21)C1(c2ccc(CNC(=O)c3ccc4c(c3)C(=O)N(C3CCC(=O)NC3=O)C4=O)cc2)CC1 (stereo not shown) [A144]
117.7 ± 1.1	60 to 90	–	CC(C)(NC(=O)c1ccc2c(c1)C(=O)N(C1CCC(=O)NC1=O)C2=O)c1ccc(CNC(=O)Cc2cccc3ccccc23)cc1 (stereo not shown) [A145]
14.7 ± 4	60 to 90	–	CC(C)(NC(=O)c1ccc2c(c1)C(=O)N(C1CCC(=O)NC1=O)C2=O)c1ccc(CNC(=O)Cn2c3ccccc3c3cccnc32)cc1 (stereo not shown) [A146]
16.7 ± 9.5	60 to 90	–	CN(CCc1cccc2ccccc12)Cc1ccc(C(C)(C)NC(=O)c2ccc3c(c2)C(=O)N(C2CCC(=O)NC2=O)C3=O)cc1 (stereo not shown) [A147]
12 ± 8.1	60 to 90	–	CN(CCn1c2ccccc2c2cccnc21)Cc1ccc(C(C)(C)NC(=O)c2ccc3c(c2)C(=O)N(C2CCC(=O)NC2=O)C3=O)cc1 (stereo not shown) [A148]
7.6 ± 3	60 to 90	–	CC(C)(NC(=O)Cc1cccc2ccccc12)c1ccc(CNC(=O)c2ccc3c(c2)C(=O)N(C2CCC(=O)NC2=O)C3=O)cc1 (stereo not shown) [A149]
0.6 ± 0.3	60 to 90	–	O=C(Cc1cccc2ccccc12)NCc1ccc(CNC(=O)c2ccc3c(c2)CN(C2CCC(=O)NC2=O)C3=O)cc1 (stereo not shown) [A152]
0.5 ± 0.3	60 to 90	–	O=C(Cn1c2ccccc2c2cccnc21)NCc1ccc(CNC(=O)c2ccc3c(c2)CN(C2CCC(=O)NC2=O)C3=O)cc1 (stereo not shown) [A153]
1.2 ± 0.1	60 to 90	–	O=C(Cc1c(F)ccc2ccccc12)NCc1ccc(CNC(=O)c2ccc3c(c2)CN(C2CCC(=O)NC2=O)C3=O)cc1 (stereo not shown) [A154]
< 3	60 to 90	–	CN(CCn1c2ccccc2c2cccnc21)Cc1ccc(CNC(=O)c2ccc3c(c2)CN(C2CCC(=O)NC2=O)C3=O)cc1 (stereo not shown) [A156]
1.9 ± 0.2	60 to 90	–	O=C(Cc1cccc2ccc(F)cc12)NCc1ccc(CNC(=O)c2ccc3c(c2)CN(C2CCC(=O)NC2=O)C3=O)c(C(F)(F)F)c1 (stereo not shown) [A162]
1.7 ± 0.3	60 to 90	–	O=C(Cn1c2ccccc2c2cccnc21)NCc1ccc(CC(=O)Nc2ccc3c(c2)C(=O)N(C2CCC(=O)NC2=O)C3=O)cc1 (stereo not shown) [A166]
2.1 ± 1.1	60 to 90	–	CN(CCc1cccc2ccccc12)Cc1ccc(CC(=O)Nc2ccc3c(c2)C(=O)N(C2CCC(=O)NC2=O)C3=O)cc1 (stereo not shown) [A167]

IC50 (HL60 cells; Homo sapiens, HL-60, 72 h) [nM]	inhibition at 1 µM (c-Myc protein) [%]	IC50 (HL60 cells) [nM]	Structure (SMILES)
2.6 ± 0.7	60 to 90	–	CN(CCn1c2ccccc2c2cccnc21)Cc1ccc(CC(=O)Nc2ccc3c(c2)C(=O)N(C2CCC(=O)NC2=O)C3=O)cc1 (stereo not shown) [A168]
4 ± 1.7	60 to 90	–	CN(CCc1ccc(Cl)c(Cl)c1)Cc1ccc(CC(=O)Nc2ccc3c(c2)C(=O)N(C2CCC(=O)NC2=O)C3=O)cc1 (stereo not shown) [A170]
0.3 ± 0.2	60 to 90	–	O=C(Cn1c2ccccc2c2cccnc21)NCc1ccc(CC(=O)Nc2ccc3c(c2)CN(C2CCC(=O)NC2=O)C3=O)cc1 (stereo not shown) [A171]
< 3	60 to 90	–	O=C(Cc1cccc2cccnc12)NCc1ccc(CC(=O)Nc2ccc3c(c2)CN(C2CCC(=O)NC2=O)C3=O)cc1 (stereo not shown) [A173]
< 3	60 to 90	–	CN(CCc1ccc(Cl)cc1Cl)Cc1ccc(CC(=O)Nc2ccc3c(c2)CN(C2CCC(=O)NC2=O)C3=O)c(F)c1 (stereo not shown) [A174]
9.5	60 to 90	–	O=C(Cc1cccc2ccccc12)NCc1ccc(C(=O)NCc2ccc3c(c2)C(=O)N(C2CCC(=O)NC2=O)C3=O)cc1 (stereo not shown) [A177]
16.9	60 to 90	–	O=C(Cn1c2ccccc2c2cccnc21)NCc1ccc(C(=O)NCc2ccc3c(c2)C(=O)N(C2CCC(=O)NC2=O)C3=O)cc1 (stereo not shown) [A178]
14 ± 4.1	60 to 90	–	O=C1CCC(N2C(=O)c3ccc(CNCc4ccc(C(=O)NCCc5cccc6ccccc56)cc4)cc3C2=O)C(=O)N1 (stereo not shown) [A179]
2 ± 1	60 to 90	–	CN(CCc1cccc2ccccc12)Cc1ccc(CNCc2ccc3c(c2)C(=O)N(C2CCC(=O)NC2=O)C3=O)cc1 (stereo not shown) [A181]
1.1 ± 0.8	60 to 90	–	CN(CCn1c2ccccc2c2cccnc21)Cc1ccc(CNCc2ccc3c(c2)C(=O)N(C2CCC(=O)NC2=O)C3=O)cc1 (stereo not shown) [A182]
32.1 ± 1.3	60 to 90	–	O=C(Cc1nccc2ccccc12)NCc1ccc(CNCc2ccc3c(c2)C(=O)N(C2CCC(=O)NC2=O)C3=O)cc1 (stereo not shown) [A186]
9.2 ± 0.5	60 to 90	–	O=C(Cc1cccc2cccnc12)NCc1ccc(CNCc2ccc3c(c2)C(=O)N(C2CCC(=O)NC2=O)C3=O)cc1 (stereo not shown) [A187]
279 ± 33.8	30 to 60	–	CN(Cc1ccc(CNC(=O)Cc2nccc3ccccc23)cc1)Cc1ccc2c(c1)C(=O)N(C1CCC(=O)NC1=O)C2=O (stereo not shown) [A188]
5.6 ± 1	60 to 90	–	O=C(Cc1cccc2ccccc12)NCc1ccc(CNCc2ccc3c(c2)C(=O)N(C2CCC(=O)NC2=O)C3=O)c(F)c1 (stereo not shown) [A189]
1.7 ± 0.6	60 to 90	–	O=C(Cn1c2ccccc2c2cccnc21)NCc1ccc(CNCc2ccc3c(c2)C(=O)N(C2CCC(=O)NC2=O)C3=O)c(F)c1 (stereo not shown) [A190]
16.9 ± 2.2	60 to 90	–	O=C(Cc1cccc2ccccc12)NCc1ccc(COCc2ccc3c(c2)C(=O)N(C2CCC(=O)NC2=O)C3=O)cc1 (stereo not shown) [A191]
